Results: EP1157985A1 (G.D. SEARLE & CO., priority 1996, dated 1997)
pIC50: −log10 of the molar value. Structures can show the parent of a compound that is named as a salt. Where two headings read alike, the source gives them in different places.

Tests used:
[1] = target: T1, Human vitronectin receptor (αvβ3) (Homo sapiens, UniProt P05106+P06756); experiment: Vitronectin adhesion assay (solid phase receptor assay, competition with biotinylated vitronectin); assay type: binding
T1 construct: Human vitronectin receptor (αvβ3) was purified from human placenta; from tissue; host or cells: human placenta
Description: VITRONECTIN ADHESION ASSAY
Human vitronectin receptor (αvβ3) was purified from human placenta as previously described [Pytela et al., Methods in Enzymology, 144:475-489 (1987)]. Human vitronectin was purified from fresh frozen plasma as previously described [Yatohgo et al., Cell Structure and Function, 13:281-292 (1988)]. Biotinylated human vitronectin was prepared by coupling NHS-biotin from Pierce Chemical Company (Rockford, IL) to purified vitronectin as previously described [Charo et al., J. Biol. Chem., 266(3):1415-1421 (1991)]. Assay buffer, OPD substrate tablets, and RIA grade BSA were obtained from Sigma (St. Louis, MO). Anti-biotin antibody was obtained from Calbiochem (La Jolla, CA). Linbro microtiter plates were obtained from Flow Labs (McLean, VA). ADP reagent was obtained from Sigma (St. Louis, MO).
This assay was essentially the same as previously reported [Niiya et al., Blood, 70:475-483 (1987)]. The purified human vitronectin receptor (αvβ3) was diluted from stock solutions to 1.0 µg/mL in Tris-buffered saline containing 1.0 mM Ca^++, Mg^++, and Mn^++, pH 7.4 (TBS^+++). The diluted receptor was immediately transferred to Linbro microtiter plates at 100 µL/well (100 ng receptor/well). The plates were sealed and incubated overnight at 4°C to allow the receptor to bind to the wells. All remaining steps were at room temperature. The assay plates were emptied and 200 µL of 1% RIA grade BSA in TBS^+++ (TBS^+++/BSA) were added to block exposed plastic surfaces. Following a 2 hour incubation, the assay plates were washed with TBS^+++ using a 96 well plate washer. Logarithmic serial dilution of the test compound and controls were made starting at a stock concentration of 2 mM and using 2 nM biotinylated vitronectin in TBS^+++/BSA as the diluent. This premixing of labeled ligand with test (or control) ligand, and subsequent transfer of 50 µL aliquots to the assay plate was carried out with a CETUS Propette robot; the final concentration of the labeled ligand was 1 nM and the highest concentration of test compound was 1.0 x 10^-4 M. The competition occurred for two hours after which all wells were washed with a plate washer as before. Affinity purified horseradish peroxidase labeled goat anti-biotin antibody was diluted 1:3000 in TBS^+++/BSA and 125 µL were added to each well. After 30 minutes, the plates were washed and incubated with OPD/H2O2 substrate in 100 mM/L Citrate buffer, pH 5.0. The plate was read with a microtiter plate reader at a wavelength of 450 nm and when the maximum-binding control wells reached an absorbance of about 1.0, the final A450 were recorded for analysis. The data were analyzed using a macro written for use with the EXCEL™ spreadsheet program. The mean, standard deviation, and %CV were determined for duplicate concentrations. The mean A450 values were normalized to the mean of four maximum-binding controls (no competitor added)(B-MAX). The normalized values were subjected to a four parameter curve fit algorithm [Rodbard et al., Int.

[2] = target: T2, Human fibrinogen receptor (αIIbβ3) (Homo sapiens, UniProt P05106+P08514); experiment: Purified IIb/IIIa receptor assay (solid phase receptor assay, competition with biotinylated vitronectin); assay type: binding; conditions: purified receptor from outdated platelets; 1 nM biotinylated vitronectin; highest concentration tested 1.0 x 10^-4 M
T2 construct: Human fibrinogen receptor (αIIbβ3) was purified from outdated platelets; from tissue; host or cells: outdated (human) platelets
Description: PURIFIED IIb/IIIa RECEPTOR ASSAY
Human fibrinogen receptor (αIIbβ3) was purified from outdated platelets. (Pytela, R., Pierschbacher, M.D., Argraves, S., Suzuki, S., and Rouslahti, E. "Arginine-Glycine-Aspartic acid adhesion receptors", Methods in Enzymology 144(1987):475-489.) Human vitronectin was purified from fresh frozen plasma as described in Yatohgo, T., Izumi, M., Kashiwagi, H., and Hayashi, M., "Novel purification of vitronectin from human plasma by heparin affinity chromatography," Cell Structure and Function 13(1988):281-292. Biotinylated human vitronectin was prepared by coupling NHS-biotin from Pierce Chemical Company (Rockford, IL) to purified vitronectin as previously described. (Charo, I.F., Nannizzi, L., Phillips, D.R., Hsu, M.A., Scarborough, R.M., "Inhibition of fibrinogen binding to GP IIb/IIIa by a GP IIIa peptide", J. Biol. Chem. 266(3)(1991): 1415-1421.) Assay buffer, OPD substrate tablets, and RIA grade BSA were obtained from Sigma (St. Louis, MO). Anti-biotin antibody was obtained from Calbiochem (La Jolla, CA). Linbro microtiter plates were obtained from Flow Labs (McLean, VA). ADP reagent was obtained from Sigma (St. Louis, MO).
This assay is essentially the same reported in Niiya, K., Hodson, E., Bader, R., Byers-Ward, V. Koziol, J.A., Plow, E.F. and Ruggeri, Z.M., "Increased surface expression of the membrane glycoprotein IIb/IIIa complex induced by platelet activation: Relationships to the binding of fibrinogen and platelet aggregation", Blood 70(1987):475-483. The purified human fibrinogen receptor (αIIbβ3) was diluted from stock solutions to 1.0 µg/mL in Tris-buffered saline containing 1.0 mM Ca^++, Mg^++, and Mn^++, pH 7.4 (TBS^+++). The diluted receptor was immediately transferred to Linbro microtiter plates at 100 µL/well (100 ng receptor/well). The plates were sealed and incubated overnight at 4°C to allow the receptor to bind to the wells. All remaining steps were at room temperature. The assay plates were emptied and 200 µL of 1% RIA grade BSA in TBS^+++ (TBS^+++/BSA) were added to block exposed plastic surfaces. Following a 2 hour incubation, the assay plates were washed with TBS^+++ using a 96 well plate washer. Logarithmic serial dilution of the test compound and controls were made starting at a stock concentration of 2 mM and using 2 nM biotinylated vitronectin in TBS^+++/BSA as the diluent. This premixing of labeled ligand with test (or control) ligand, and subsequent transfer of 50 µL aliquots to the assay plate was carried out with a CETUS Propette robot; the final concentration of the labeled ligand was 1 nM and the highest concentration of test compound was 1.0 x 10^-4 M. The competition occurred for two hours after which all wells were washed with a plate washer as before. Affinity purified horseradish peroxidase labeled goat anti-biotin antibody was diluted 1:3000 in TBS^+++/BSA and 125 µL were added to each well. After 30 minutes, the plates were washed and incubated with […] substrate in 100 mM/L citrate buffer, pH 5.0. The plate was read with a microtiter plate reader at a wavelength of 450 nm and when the maximum-binding control wells reached an absorbance of about 1.0, the final A450 were recorded for analysis. The data were analyzed using a macro written for use with the EXCEL™ spreadsheet program. The mean, standard deviation, and %CV were determined for duplicate concentrations. The mean A450 values were normalized to the mean of four maximum-binding controls (no competitor added)(B-MAX). The normalized values were subjected to a four parameter curve fit algorithm, [Robard et al., Int. […]

[3] = purified receptor from human placenta; 1 nM biotinylated vitronectin; highest concentration tested 1.0 x 10^-4 M; read-out: AvB3 IC50

Compound | pIC50 [1, 3] | pIC50 [2] | pIC50 ([1]; read-out: AvB3 IC50; purified receptor from human placenta; 1 nM biotinylated vitronectin; highest concentration tested 1.0 x 10^-4 M)
CC(C)OC(=O)NC(Cc1ccc(NC(=O)c2cccc(Nc3n[nH]c(N)n3)c2)cc1)C(=O)O (racemic) [Example 103, (±) 4-[[[3-[3-amino-1H-1,2,4-triazol-5-yl)amino]-phenyl]carbonyl]amino]-N-[(1-methylethoxy) carbonyl]phenylalanine, trifluoroacetate salt] | 6.57 | 5.44 | 
CC(C)OC(=O)NC(Cc1ccc(NC(=O)c2cccc(Nc3noc(N)n3)c2)cc1)C(=O)O (racemic) [Example 104, (±) 4-[[[3-[(5-amino-1,2,4-oxadiazol-3-yl)amino]-phenyl]carbonyl]amino]-N-[(1-methylethoxy)carbonyl]phenylalanine, trifluoroacetate salt] | 6.30 | 5.80 | 
CCCCS(=O)(=O)N[C@@H](Cc1ccc(NC(=O)c2cc(NC3=NCCCCC3)cc(C(F)(F)F)c2)cc1)C(=O)O [Example 6, N-(butylsulfonyl)-4-[[[3-[(3,4,5,6-tetrahydro-2H-azepin-7-yl)-amino]-5-(trifluoromethyl)phenyl]carbonyl]-amino]phenylalanine, trifluoroacetate salt] | 9.29 | 7.31 | 
CCCCS(=O)(=O)N[C@@H](Cc1ccc(NC(=O)c2cccc(NC3=NCCCCC3)c2)cc1)C(=O)O [Example 10, N-(butylsulfonyl)-4-[[[3-[(3,4,5,6-tetrahydro-2H-azepin-7-yl)-amino]phenyl]carbonyl]amino]phenylalanine, trifluoroacetate salt] | 8.93 | 7.57 | 
CCOC(=O)CCc1ccc(CNC(=O)c2cccc(C#N)c2)cc1 [Example 12, ethyl 4-[[[[3-(cyano)phenyl]-carbonyl]amino]methyl]benzenepropanoate] | < 4.00 | 4.16 | 
N=C(N)c1cccc(C(=O)NCc2ccc(CCC(=O)O)cc2)c1 [Example 19, 4-[[[[3-(aminoiminomethyl)phenyl]carbonyl]amino]methyl]benzenepropanoic acid, trifluoroacetate salt] | < 4.00 | 5.75 | 
NC(=O)Nc1cccc(C(=O)Nc2ccc(CCC(=O)O)cc2)c1 [Example 24, 4-[[[3-[(aminocarbonyl)amino]phenyl]carbonyl]amino]benzenepropanoic acid] | 5.91 | 5.34 | 
O=C(O)CCc1ccc(NC(=O)c2cccc(NC(=O)NCc3ccccc3)c2)cc1 [Example 28, 4-[[[3-[[[(phenylmethyl)amino]carbonyl]amino]phenyl]carbonyl]amino]benzenepropanoic acid] | 6.26 | 5.00 | 
N=C(N)Nc1cccc(C(=O)NCc2ccc(CCC(=O)O)cc2)c1 [Example 29, 4-[[[[3-[(aminoiminomethyl)amino]phenyl]carbonyl]amino]methyl]benzenepropanoic acid, trifluoroacetate salt] | 5.40 | 5.89 | 
CC(CC(=O)O)c1ccc(NC(=O)c2cccc(NC(=N)N)c2)cc1 (stereo not drawn) [Example 31, 4-[[[3-[(aminoiminomethyl)amino]phenyl]. carbonyl]amino]-β-methylbenzenepropanoic acid, trifluoroacetate salt] | 6.94 | 7.18 | 
N=C(N)Nc1cccc(C(=O)Nc2ccc(C(CC(=O)O)c3ccccc3)cc2)c1 (stereo not drawn) [Example 33, 4-[[[3-[(aminoiminomethyl)amino]phenyl]carbonyl]amino]-β-phenylbenzenepropanoic acid, trifluoroacetate salt] | 7.13 | 8.13 | 
CCOC(=O)C(Cc1ccc(NC(=O)c2cccc(NC(=N)N)c2)cc1)NC(C)=O (centres unmarked) [Example 34, N-acetyl-4-[[[3-[(aminoiminomethyl)amino]phenyl)carbonyl]amino]phenylalanine ethyl ester, trifluoroacetate salt] | 7.34 | 5.66 | 
CCCCS(=O)(=O)NC(Cc1ccc(NC(=O)c2cccc(NC(=N)N)c2)cc1)C(=O)OCC (centres unmarked) [Example 41, trifluoroacetate salt] |  | 5.24 | 5.97
CCOC(=O)C(Cc1ccc(NC(=O)c2cccc(NC(=N)N)c2)cc1)NC(=O)OC(C)(C)C (centres unmarked) [Example 44, trifluoroacetate salt] | 6.92 | 5.37 | 
N=C(N)Nc1cccc(C(=O)Nc2ccc(CC(NC(=O)c3ccccc3)C(=O)O)cc2)c1 (centres unmarked) [Example 47, trifluoroacetate salt] | 8.23 | 7.29 | 
CS(=O)(=O)NC(Cc1ccc(NC(=O)c2cccc(NC(=N)N)c2)cc1)C(=O)O (centres unmarked) [Example 48, trifluoroacetate salt] | 9.20 | 7.81 | 
CCOC(=O)NC(Cc1ccc(NC(=O)c2cccc(NC(=N)N)c2)cc1)C(=O)O (centres unmarked) [Example 49, trifluoroacetate salt] | 8.96 | 7.50 | 
CC(C)OC(=O)NC(Cc1ccc(NC(=O)c2cccc(N=C(N)N)c2)cc1)C(=O)O (centres unmarked) [Example 50, trifluoroacetate salt] | 9.10 | 7.66 | 
N=C(N)Nc1cccc(C(=O)Nc2ccc(CC(NS(=O)(=O)c3ccccc3)C(=O)O)cc2)c1 (centres unmarked) [Example 51, trifluoroacetate salt] | 9.20 | 9.15 | 
